Reference: patent publication US20060205688A1, “Method of modulating epithelial cell activity by modulating the functional levels of sphingosine kinase” (priority 2002, published 2006)
Entries after “also recorded” stand apart in the source; their conditions may differ. Read-outs that look alike come from different tables or passages of the source.

Assays:
Assay type in all cases: cell-based, human
[1] = tested on: HUVEC; experiment: Cell survival in serum-free medium (MTS); parameters: effect of inhibitor on cell survival of control cells: dose or concentration left out as unconfirmed
Description: Endothelial cells were plated into gelatin coated 96 well microtitre trays at 3×10^3 cells per well in serum-free medium. MTS (Promega, WI, USA) was used to measure cell viability. Optical density at 490 nm was measured on Day 0, Day 1, Day 2, and Day 3.
Cell survival was measured in serum-free medium supplemented with ECGs and in non-tissue culture non-adhesive trays coated with 1% bovine serum albumin under serum free culture conditions.

[2] = tested on: E-Selectin; experiment: E Selectin cell surface expression (FACS)
Description: (§1) Flow cytometric analysis of cell surface expression of E-Selectin and VCAM-1 was performed as previously described (11) using 10 μg/ml mouse monoclonal primary antibodies to E-Selectin (49-1B11) or VCAM-1 (51-10C9) generated in our laboratory (Gamble J R, Khew-Goodall Y, Vadas M A. (1993) supra). Secondary antibodies used were anti-mouse fluorescein-isothiocyanate, or for GFP-expressing cells, goat anti-mouse IgG R-phycoerythrin conjugate (Southern Biotech Birmingham, Ala., USA). The median fluorescence intensity was determined using a Coulter Epics Profile XL flow cytometer.

[3] = tested on: PECAM-1; experiment: PECAM-1 expression (flow cytometry, Western blot); settings: normal HUVEC
Description: SDS-polyacrylamide gel electrophoresis was performed as described (Pitson S M, Moretti P A, Zebol J R, Xia P, Gamble J R, Vadas M A et al. (2000) J Biol Chem; 275(43):33945-33950) on cell lysates using 12% acrylamide gels. […] The membrane was incubated with horseradish peroxidase-conjugated anti-mouse IgG or anti-rabbit IgG (Pierce) and immunocomplexes were detected using enhanced chemiluminescence (Amersham Pharmacia Biotech).
Flow cytometric analysis of cell surface expression of PECAM-1 and VE-Cadherin was performed as previously described (Xia P, Gamble J R, Rye K A, Wang L, Hii C S, Cockerill P et al. (1998) supra) using 10 µg/ml mouse monoclonal primary antibodies to PECAM-1 (51-6F6) or VE-Cadherin (55-7H1) generated in our laboratory (Gamble J R, Khew-Goodall Y, Vadas M A. (1993) J Immunol; 150(10):4494-4503). […] The median fluorescence intensity was determined using a Coulter Epics Profile XL flow cytometer. FAC S analysis of the cell surface expression of CD34 was done by incubating 1×10^6 cells with […] of anti-CD34, R-phycoerythrin (R-PE)-conjugated mouse anti-human mAb (BD Pharmingen, San Diego, Calif.) for 30 minutes at room temperature, and then determining the median fluorescence intensity.

[4] = tested on: VCAM-1; experiment: VCAM-1 cell surface expression (FACS)
Description: as §1

[5] = tested on: PECAM-1; experiment: PECAM-1 phosphorylation (Western blot); settings: data not shown
Description: SDS-polyacrylamide gel electrophoresis was performed as described (Pitson S M, Moretti P A, Zebol J R, Xia P, Gamble J R, Vadas M A et al. (2000) J Biol Chem; 275(43):33945-33950) on cell lysates using 12% acrylamide gels. Proteins were transferred to PVDF membranes, blocked in 5% low fat milk in PBS with 0.1% Tween20 for one hour, and incubated overnight at 4 C with M2 mouse anti-FLAG antibody (Sigma, St Louis, Mo.), rabbit polyclonal anti-phospho-Akt (Cell Signaling Technology), rabbit polyclonal anti-Akt (Cell Signaling Technology), anti-phosphotyrosine (Cell Signaling Technology), or for one hour at room temperature with mouse anti-cyclin D1 or cyclin E (Santa Cruz Biotechnology) or mouse monoclonal antibody directed to PECAM-1 (51-6F6) raised at The Hanson Institute, Adelaide, Australia. The membrane was incubated with horseradish peroxidase-conjugated anti-mouse IgG or anti-rabbit IgG (Pierce) and immunocomplexes were detected using enhanced chemiluminescence (Amersham Pharmacia Biotech).

[6] = 5 μM for four hours, SK and EV cells
[7] = pertussis toxin 50 ng/ml 18 hours, then TNFα 0.5 ng/ml four hours, control cells or SK cells
[8] = pertussis toxin 50 ng/ml, cells over-expressing SK or EV

Compound: COc1cccc(-c2cc(=O)c3ccccc3o2)c1N [PD98059]
- effect of inhibitor on cell survival of control cells ([1]; EV cells, Day 2): significantly reduced cell survival

Compound: CCCCCCCCCCCCC/C=C/[C@@H](O)[C@@H](N)COP(=O)(O)O [S1P]
- E Selectin expression after exogenous SIP [2, 6]: up-regulation
- PECAM-1 expression after exogenous S1P [3]: did not induce PECAM-1 expression; also recorded: had no effect
- VCAM-1 expression after exogenous SIP [4, 6]: up-regulation
- PECAM-1 phosphorylation status after exogenous S1P [5]: had no effect

Compound: N#CC(=C(/N)Sc1ccccc1N)/C(C#N)=C(\N)Sc1ccccc1N [U0126]
- effect of inhibitor on cell survival of control cells [1]: significantly reduced cell survival

Compound: pertussis toxin
- effect on SK-mediated cell survival ([1]; pertussis toxin 50 ng/ml, HUVEC over-expressing SK): not inhibited
- effect of pre-treatment on TNFα-induced E Selectin expression [2, 7]: did not alter
- effect on basal or TNFα-induced E Selectin expression [2, 8]: did not inhibit
- effect of pretreatment on adhesion molecule response to exogenous SIP ([4]; SK and EV cells, adhesion molecule (VCAM-1 / E Selectin) not specified): inhibited
- effect of pre-treatment on TNFα-induced VCAM-1 expression [4, 7]: did not alter
- effect on basal or TNFα-induced VCAM-1 expression [4, 8]: did not inhibit
